Assay results published in patent US20240158446A1, “CYCLIC COMPOUND HAVING SELECTIVE INHIBITORY ACTION ON KRAS OVER HRAS AND NRAS” (CHUGAI SEIYAKU KABUSHIKI KAISHA, priority 2021, published 2024).
*1 amine or outer side, *2 acyl side, *3 side chain or, on linkers, in order; H or OH if unused. Where a SMILES comes first, the peptide text is derived from it. Bridges are numbered along the chain shown (N, C = ends). [ ]: non-standard residue; d: D form. The star is where a group is joined. hPhe(3-Cl-4-CF3) = N[C@@H](CCc1ccc(C(F)(F)F)c(Cl)c1)C(=O)O; NPrPhe(4-CF3) = CCCN[C@@H](Cc1ccc(C(F)(F)F)cc1)C(=O)O; NEtAsp = CCN([C@@H](CC(=O)[*:3])C(=O)[*:2])[*:1]; NMeGly(cPent) = CN[C@H](C(=O)O)C1CCCC1; NMeL = CN[C@@H](CC(C)C)C(=O)O; NMeNva = CCC[C@H](NC)C(=O)O; Morpholide = C1CN(*)CCO1; NMeA = CN[C@@H](C)C(=O)O; Aze = O=C(O)[C@@H]1CCN1; Ac4c = NC1(C(=O)O)CCC1; Sar = CNCC(=O)O

Assays:
[1] = biological target: GDP-bound NRAS wild-type protein (Homo sapiens, UniProt P01111); assay: Binding to NRAS by surface plasmon resonance (SPR), Single Cycle Kinetics; conditions: ratio of KD for GDP-bound NRAS wild-type protein to KD for KRAS, SPR
[2] = biological target: GDP-bound HRAS wild-type protein (Homo sapiens, UniProt P01112); assay: Binding to HRAS by surface plasmon resonance (SPR), Single Cycle Kinetics; conditions: ratio of KD for GDP-bound HRAS wild-type protein to KD for KRAS, SPR
[3] = biological target: GDP-bound KRAS wild-type protein (Homo sapiens, UniProt P01116); assay: Binding to KRAS by surface plasmon resonance (SPR), Single Cycle Kinetics; conditions: SPR, Single Cycle Kinetics, GDP-bound KRAS wild-type protein; read-out: KRAS KD
[4] = test system: human lung cancer strain NCI-H441; assay: cells; conditions: NCI-H441, 96 h, read-out: NCI-H441 IC50 (nM), NCI-H441 cell proliferation, 4 days, CellTiter-Glo;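 further: cell proliferation inhibition after four days measured by CellTiter-Glo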

GDP-bound NRAS wild-type protein, sequence (P01111 whole entry): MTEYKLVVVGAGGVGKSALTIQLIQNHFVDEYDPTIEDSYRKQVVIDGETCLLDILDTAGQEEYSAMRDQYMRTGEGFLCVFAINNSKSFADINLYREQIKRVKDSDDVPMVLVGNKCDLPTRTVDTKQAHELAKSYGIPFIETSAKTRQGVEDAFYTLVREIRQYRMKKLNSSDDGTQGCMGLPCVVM
GDP-bound KRAS wild-type protein, sequence (P01116 whole entry): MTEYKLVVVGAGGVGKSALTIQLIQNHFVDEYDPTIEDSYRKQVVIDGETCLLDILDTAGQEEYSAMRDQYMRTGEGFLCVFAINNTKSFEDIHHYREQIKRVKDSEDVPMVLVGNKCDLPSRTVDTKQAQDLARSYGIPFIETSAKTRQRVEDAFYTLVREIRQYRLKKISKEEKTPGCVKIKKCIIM
GDP-bound HRAS wild-type protein, sequence (P01112 whole entry): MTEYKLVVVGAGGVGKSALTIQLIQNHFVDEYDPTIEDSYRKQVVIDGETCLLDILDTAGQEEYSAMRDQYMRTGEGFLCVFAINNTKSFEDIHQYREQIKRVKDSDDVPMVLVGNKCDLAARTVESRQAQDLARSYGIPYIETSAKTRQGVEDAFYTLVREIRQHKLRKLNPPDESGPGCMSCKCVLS

| SMILES | NRAS/KRAS (KD ratio) [1] | HRAS/KRAS (KD ratio) [2] | Kd [3] [nM] | IC50 [4] [nM] |
| --- | --- | --- | --- | --- |
| CC[C@H](C)[C@@H]1NC(=O)[C@H](CC(C)C)N(C)C(=O)C[C@@H](C(=O)N(C)C)N(C)C(=O)[C@H](C2CCCC2)N(C)C(=O)C2(CCC2)NC(=O)[C@@H]2C[C@@H](C)CN2C(=O)[C@H](CCc2cc(F)c(C(F)(F)F)c(F)c2)NC(=O)CN(C)C(=O)[C@H](Cc2ccc(C)cc2)N2CC/C=C\C[C@@H](C2=O)N(C)C(=O)CN(C)C1=O [PP1866] | A (a compound having 10 or more and less than 20 is denoted as A) | B (a compound having 3 or more and less than 10 is denoted as B) | 0.093 | 11.1 |
| CC[C@H](C)[C@@H]1NC(=O)[C@H](CC(C)C)N(C)C(=O)C[C@@H](C(=O)N(CC)CC)N(C)C(=O)[C@H](C2CCCC2)N(C)C(=O)C2(CCC2)NC(=O)[C@@H]2C[C@H](C)CN2C(=O)[C@H](CCc2ccc(C(F)(F)F)c(OC)c2)NC(=O)CN(C)C(=O)[C@H](Cc2ccc(C)cc2)N2CC/C=C\C[C@@H](C2=O)N(C)C(=O)CN(C)C1=O [PP1885] | AA (a compound having 20 or more is denoted as AA) | A (a compound having 10 or more and less than 20 is denoted as A) | 0.23 | 18.3 |
| CCC[C@H]1C(=O)N[C@@H]([C@@H](C)CC)C(=O)N(C)CC(=O)N(C)[C@H]2C/C=C\CCN(C2=O)[C@@H](Cc2ccc(C(F)(F)F)cc2)C(=O)N(C)CC(=O)N[C@@H](CCc2cc(F)c(C(F)(F)F)c(F)c2)C(=O)N2C[C@H](OCC)C[C@H]2C(=O)NC2(CCC2)C(=O)N(C)[C@@H](C2CCCC2)C(=O)N(CCC)[C@H](C(=O)N(C)C)CC(=O)N1C [PP1769] | A (a compound having 10 or more and less than 20 is denoted as A) | A (a compound having 10 or more and less than 20 is denoted as A) | 0.78 | 12.9 |
| CCCN(C)C(=O)[C@@H]1CC(=O)N(C)[C@@H](CC2CCC2)C(=O)N[C@@H]([C@@H](C)CC)C(=O)N(C)CC(=O)N(C)[C@H]2C/C=C\CCN(C2=O)[C@@H](Cc2ccc(C(F)(F)F)cc2)C(=O)N(C)CC(=O)N[C@@H](CCc2cc(F)c(C(F)(F)F)c(F)c2)C(=O)N2C[C@H](OCC)C[C@H]2C(=O)NC2(CCC2)C(=O)N(C)[C@@H](C2CCCC2)C(=O)N1C [PP1705] | AA (a compound having 20 or more is denoted as AA) | A (a compound having 10 or more and less than 20 is denoted as A) | 0.14 | 8 |
| CCCN(C)C(=O)[C@@H]1CC(=O)N(C)[C@@H](C)C(=O)N[C@@H]([C@@H](C)CC)C(=O)N(C)CC(=O)N(C)[C@H]2C/C=C\CCN(C2=O)[C@@H](Cc2ccc(C(F)(F)F)cc2)C(=O)N(C)CC(=O)N[C@@H](CCc2cc(F)c(C(F)(F)F)c(F)c2)C(=O)N2C[C@H](OCC)C[C@H]2C(=O)NC2(CCC2)C(=O)N(C)[C@@H](C2CCCC2)C(=O)N1C [PP1666] | A (a compound having 10 or more and less than 20 is denoted as A) | A (a compound having 10 or more and less than 20 is denoted as A) | 0.076 | 8.1 |
| CC[C@H](C)[C@@H]1NC(=O)[C@H](CC(F)(F)F)N(C)C(=O)C[C@@H](C(=O)N(C)C)N(C)C(=O)[C@H](C2CCCC2)N(C)C(=O)C2(CC(C)(C)C2)NC(=O)[C@@H]2C[C@@H](F)CN2C(=O)[C@H](CCc2cc(F)c(C(F)(F)F)c(F)c2)NC(=O)CN(C)C(=O)[C@H](Cc2ccc(C(F)(F)F)cc2)N2CC/C=C\C[C@@H](C2=O)N(C)C(=O)CN(C)C1=O [PP1688] | A (a compound having 10 or more and less than 20 is denoted as A) | A (a compound having 10 or more and less than 20 is denoted as A) | 0.025 | 1.5 |
| CCO[C@@H]1C[C@H]2C(=O)NC3(CC(C)(C)C3)C(=O)N(C)[C@@H](C3CCCC3)C(=O)N(C)[C@H](C(=O)N(C)CC)CC(=O)N(C)[C@@H](CC)C(=O)N[C@@H]([C@@H](C)CC)C(=O)N(C)CC(=O)N(C)[C@H]3C/C=C\CCN(C3=O)[C@@H](Cc3ccc(C)cc3)C(=O)N(C)CC(=O)N[C@@H](CCc3ccc(C(F)(F)F)c(OC)c3)C(=O)N2C1 [PP1872] | A (a compound having 10 or more and less than 20 is denoted as A) | A (a compound having 10 or more and less than 20 is denoted as A) | 0.12 | 12.4 |
| CCCN1C(=O)CN(C)C(=O)CN(C)C(=O)[C@H]([C@@H](C)CC)NC(=O)[C@H](CC(C)C)N(C)C(=O)C[C@@H](C(=O)N2CCOCC2)N(CC)C(=O)[C@H](C2CCCC2)N(C)C(=O)C2(CCC2)NC(=O)[C@@H]2CCCN2C(=O)[C@H](CCc2ccc(C(F)(F)F)c(Cl)c2)NC(=O)CN(C)C(=O)[C@@H]1Cc1ccc(C(F)(F)F)cc1 [PP1953] ([NMeL]I[Sar][Sar][NPrPhe(4-CF3)][Sar][hPhe(3-Cl-4-CF3)]P[Ac4c][NMeGly(cPent)][NEtAsp]-Morpholide; lactam N-11) | B (a compound having 3 or more and less than 10 is denoted as B) | B (a compound having 3 or more and less than 10 is denoted as B) | 0.42 | 8.7 |
| CCC[C@H]1C(=O)N[C@@H]([C@@H](C)CC)C(=O)N(C)CC(=O)N(C)[C@H]2C/C=C\CCN(C2=O)[C@@H](Cc2ccc(C)cc2)C(=O)N(C)CC(=O)N[C@@H](CCc2ccc(C(F)(F)F)c(OC)c2)C(=O)N2C[C@H](OCC)C[C@H]2C(=O)NC2(CC(C)(C)C2)C(=O)N(C)[C@@H](C2CCCC2)C(=O)N(C)[C@H](C(=O)N(C)C)CC(=O)N1C [PP1892] | A (a compound having 10 or more and less than 20 is denoted as A) | B (a compound having 3 or more and less than 10 is denoted as B) | 0.074 | 4.8 |
| CCO[C@@H]1C[C@H]2C(=O)NC3(CC(C)(C)C3)C(=O)N(C)[C@@H](C3CCCC3)C(=O)N(C)[C@H](C(=O)N(C)CC)CC(=O)N(C)[C@@H](CC(F)F)C(=O)N[C@@H]([C@@H](C)CC)C(=O)N(C)CC(=O)N(C)[C@H]3C/C=C\CCN(C3=O)[C@@H](Cc3ccc(C(F)(F)F)cc3)C(=O)N(C)CC(=O)N[C@@H](CCc3cc(F)c(C(F)(F)F)c(F)c3)C(=O)N2C1 [PP1643] | A (a compound having 10 or more and less than 20 is denoted as A) | A (a compound having 10 or more and less than 20 is denoted as A) | 0.055 | 1.6 |
| CCC[C@H]1C(=O)N[C@@H]([C@@H](C)CC)C(=O)N(C)[C@@H](C)C(=O)N2CC[C@H]2C(=O)N(CCC)[C@@H](Cc2ccc(C(F)(F)F)cc2)C(=O)N(C)CC(=O)N[C@@H](CCc2ccc(C(F)(F)F)c(Cl)c2)C(=O)N2CCC[C@H]2C(=O)NC2(CCC2)C(=O)N(C)[C@@H](C2CCCC2)C(=O)N(CC)[C@H](C(=O)N2CCOCC2)CC(=O)N1C [PP1955] ([NMeNva]I[NMeA][Aze][NPrPhe(4-CF3)][Sar][hPhe(3-Cl-4-CF3)]P[Ac4c][NMeGly(cPent)][NEtAsp]-Morpholide; lactam N-11) | C (A compound having a KD ratio of 0.1 or more and less than 3 is denoted as C) | B (a compound having 3 or more and less than 10 is denoted as B) | 0.82 | 4.4 |
| CCO[C@@H]1C[C@H]2C(=O)N(C)C3(CCC3)C(=O)N(C)[C@@H](C3CCCC3)C(=O)N(C)[C@H](C(=O)N(C)C)CC(=O)N(C)[C@@H](CC(C)C)C(=O)N[C@@H]([C@@H](C)CC)C(=O)N(C)CC(=O)N(C)[C@H]3C/C=C\CCN(C3=O)[C@@H](Cc3ccc(C)cc3)C(=O)N(C)CC(=O)N[C@@H](CCc3cc(F)c(C(F)(F)F)c(F)c3)C(=O)N2C1 [PP1790] | A (a compound having 10 or more and less than 20 is denoted as A) | B (a compound having 3 or more and less than 10 is denoted as B) | 0.03 | 1.7 |
| CC[C@H](C)[C@@H]1NC(=O)[C@H](CC(F)F)N(C)C(=O)C[C@@H](C(=O)N(C)CC)N(C)C(=O)[C@H](C2CCCC2)N(C)C(=O)C2(CC(C)(C)C2)NC(=O)[C@@H]2C[C@H](C)CN2C(=O)[C@H](CCc2ccc(C(F)(F)F)c(Cl)c2)NC(=O)CN(C)C(=O)[C@H](Cc2ccc(C)cc2)N2CC/C=C\C[C@@H](C2=O)N(C)C(=O)CN(C)C1=O [PP1911] | A (a compound having 10 or more and less than 20 is denoted as A) | A (a compound having 10 or more and less than 20 is denoted as A) | 0.21 | 11.7 |
| CCO[C@@H]1C[C@H]2C(=O)NC3(CC(C)(C)C3)C(=O)N(CC)[C@@H](C3CCCC3)C(=O)N(C)[C@H](C(=O)N(C)C)CC(=O)N(C)[C@@H](CC)C(=O)N[C@@H]([C@@H](C)CC)C(=O)N(C)CC(=O)N(C)[C@H]3C/C=C\CCN(C3=O)[C@@H](Cc3ccc(C(F)(F)F)cc3)C(=O)N(C)CC(=O)N[C@@H](CCc3cc(F)c(C(F)(F)F)c(F)c3)C(=O)N2C1 [PP1913] | A (a compound having 10 or more and less than 20 is denoted as A) | A (a compound having 10 or more and less than 20 is denoted as A) | 0.37 | 44 |
